US9539312B2 (UNIVERSIDAD NACIONAL AUTÓNOMA DE MÉXICO, priority 2012, dated 2017)
Like-named read-outs stand apart in the source and are kept apart here. Where no end group is shown, it is not given here.

Columns and labels:
[1] = phase II, cited from earlier work
CETP = target: T1, CETP (Homo sapiens, UniProt P11597); settings: phase II, group with the highest dose; cited from earlier work
T1 construct: host or cells: trial subjects' plasma (not described)
T1 sequence (P11597 18-493): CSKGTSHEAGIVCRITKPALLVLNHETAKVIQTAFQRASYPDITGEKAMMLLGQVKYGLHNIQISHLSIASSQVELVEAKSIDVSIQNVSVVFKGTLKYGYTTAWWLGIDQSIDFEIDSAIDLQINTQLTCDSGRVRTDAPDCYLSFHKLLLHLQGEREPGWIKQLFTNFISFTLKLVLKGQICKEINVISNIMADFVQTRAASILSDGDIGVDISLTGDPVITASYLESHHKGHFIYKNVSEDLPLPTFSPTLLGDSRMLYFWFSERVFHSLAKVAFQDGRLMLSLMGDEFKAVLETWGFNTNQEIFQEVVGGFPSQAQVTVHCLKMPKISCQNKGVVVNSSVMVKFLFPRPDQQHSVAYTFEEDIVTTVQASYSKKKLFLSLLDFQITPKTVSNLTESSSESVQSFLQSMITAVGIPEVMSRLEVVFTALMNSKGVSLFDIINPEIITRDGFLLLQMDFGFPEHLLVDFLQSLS

[2] = phase III, treatment group receiving combination with atorvastatin; cited from earlier work
[3] = target: C-terminus peptide of CETP (Homo sapiens, UniProt P11597)
[4] = pH 9.5
[5] = target: 10 nm-diameter nascent discoid HDL particles; settings: cited from earlier work

In the case of COc1cc(F)c(C(C)C)cc1-c1ccc(C(F)(F)F)cc1CN1C(=O)O[C@H](c2cc(C(F)(F)F)cc(C(F)(F)F)c2)[C@@H]1C [Anacetrapib], the blood pressure ([1]; all cohorts) is given as “without the corresponding increase in blood pressure”, the “increase in HDL, average” value ([1]; dose 10 mg) is given as 44% and the “increase in HDL, average” value ([1]; dose 40 mg) is given as 86%. The “increase in HDL, average” value ([1]; dose 150 mg) was 139% and the “increase in HDL, average” value ([1]; dose 300 mg) was 133%.

For CCC(CC)CC1(C(=O)Nc2ccccc2SC(=O)C(C)C)CCCCC1 [Dalcetrapib], the CETP activity decreased (CETP) is given as 36% and the HDL cholesterol increased (CETP) is given as 34%.

For CCOC(=O)N1c2ccc(C(F)(F)F)cc2[C@@H](N(Cc2cc(C(F)(F)F)cc(C(F)(F)F)c2)C(=O)OC)C[C@H]1CC [Torcetrapib], the “mortality and cardiovascular events” value [2] is listed as “cases of mortality and cardiovascular events”.

In the case of CCCCCCCCCCCC(=O)OC[C@@H](O)COP(=O)([O-])OCC[N+](C)(C)C [lysophosphatidylcholine (C12), 1-Lauril-2-Hydroxi-snglycero 3 phosphocholine], the “secondary structure of the antigen peptide” value [3] is reported as “favored the presentation of the α-helix structure”.

For CHLLVDFLQSLS [Y-helix], the “solubility and monomeric state of peptide” value [4] was “allows solubility and keeps the peptide in monomeric state”.

B1: CETP: proatherogenic hydrophobic glycoprotein that transfers cholesteryl esters and triglycerides among lipoproteins (protein, UniProt P11597 18-493, looked up)
Cholesteryl ester transfer …: CSKGTSHEAGIVCRITKPALLVLNHETAKVIQTAFQRASYPDITGEKAMMLLGQVKYGLHNIQISHLSIASSQVELVEAKSIDVSIQNVSVVFKGTLKYGYTTAWWLGIDQSIDFEIDSAIDLQINTQLTCDSGRVRTDAPDCYLSFHKLLLHLQGEREPGWIKQLFTNFISFTLKLVLKGQICKEINVISNIMADFVQTRAASILSDGDIGVDISLTGDPVITASYLESHHKGHFIYKNVSEDLPLPTFSPTLLGDSRMLYFWFSERVFHSLAKVAFQDGRLMLSLMGDEFKAVLETWGFNTNQEIFQEVVGGFPSQAQVTVHCLKMPKISCQNKGVVVNSSVMVKFLFPRPDQQHSVAYTFEEDIVTTVQASYSKKKLFLSLLDFQITPKTVSNLTESSSESVQSFLQSMITAVGIPEVMSRLEVVFTALMNSKGVSLFDIINPEIITRDGFLLLQMDFGFPEHLLVDFLQSLS
In the case of B1, the Kd [5] is listed as 20 to 120 nM.
